In the assay the target is glucosylceramide synthase (GCS) enzyme in Golgi preparations from human A375 malignant melanoma skin cells (Homo sapiens (Human), UniProt Q16739). Put plainly: UDP-Glo glucosylceramide synthase biochemical assay. The settings on record: 1.5 μg crude golgi preparation; C6 ceramide and UDP-glucose at 2×Km; 20 h incubation at room temperature; luminescence. From the text:
UDP-Glo™ Glucosylceramide Synthase Biochemical Assay
A UDP-Glo™ glucosylceramide synthase biochemical assay was utilized to evaluate the effect of test compounds on the activity of endogenous levels of GCS enzyme contained within Golgi preparations isolated from human A375 malignant melanoma skin cells. The UDP-Glo™ glucosylceramide synthase assay uses UDP-Glucose as a nucleotide-glycosyl donor and ceramide as substrate acceptor molecules. In the reaction, glucosylceramide synthase (GCS) transfers glucose from UDP-Glucose to ceramide. Glucosylceramide and UDP are released as products.
Using Promega's UDP-Glo™ Glycosyltransferase assay kit (Promega Corporation, Madison, WI, USA (Promega)), GCS activity was indirectly measured by detecting the amount of UDP produced. An aliquot of GCS enzyme (1.5 μg crude golgi preparation, total protein) and titrated test compound were aliquoted to each well and incubated for 30 minutes at room temperature. Substrate mixture was prepared by mixing C6 ceramide (Avanti Polar Lipids, Alabaster, AL USA (Avanti)) (micelles prepared at 0.6 mM in 0.6 mM DOPC) and UDP-glucose (20 μM; Promega), at concentrations equivalent to 2×Km, in assay buffer (25 mM HEPES (pH 7.5), 50 mM KCl, 5 mM MgCl2). An equivalent volume of substrate mixture was then added to each well. Following a 20 h incubation at room temperature to allow for GCS turnover of substrate, an equal volume of UDP detection reagent (Promega) was added to each well and incubated for an additional 75 minutes at room temperature to simultaneously convert the accumulated UDP product into ATP and generate light in a luciferase reaction. The generated light was detected using a luminometer. […] luminescence values (RLUs) were normalized to mean “min” and “max” effects, as determined on each plate. “Min” was defined as the mean of the values of the wells treated with vehicle (DMSO) and which represent 0% inhibition; “max” was defined as the mean of the values of the wells treated with a reference inhibitor and which represent the 100% effect. Values for % Emax and EC50 were determined by best-fitting the normalized data to a curve in Activity Base along a four-parameter logistic nonlinear regression (4PL) model (based on the Levenberg-Marquardt algorithm and defined by the equation below): […]
where: n is 4PMin (bottom of the curve); m is 4PMax (top of the curve); i is IP (inflection point of curve); andp is slope. See Levenberg, K., “A Method for the Solution of Certain Problems in Least Squares”, Quart. Appl. Math. 2, (1944), pp 164-168 and Marquardt, D., “An Algorithm for Least Squares Estimation on Nonlinear Parameters”, SIAM J. Appl. Math. 11, (1963) pp 431-441.
Chain of glucosylceramide synthase (GCS) enzyme in Golgi preparations from human A375 malignant melanoma skin cells (Q16739 whole entry): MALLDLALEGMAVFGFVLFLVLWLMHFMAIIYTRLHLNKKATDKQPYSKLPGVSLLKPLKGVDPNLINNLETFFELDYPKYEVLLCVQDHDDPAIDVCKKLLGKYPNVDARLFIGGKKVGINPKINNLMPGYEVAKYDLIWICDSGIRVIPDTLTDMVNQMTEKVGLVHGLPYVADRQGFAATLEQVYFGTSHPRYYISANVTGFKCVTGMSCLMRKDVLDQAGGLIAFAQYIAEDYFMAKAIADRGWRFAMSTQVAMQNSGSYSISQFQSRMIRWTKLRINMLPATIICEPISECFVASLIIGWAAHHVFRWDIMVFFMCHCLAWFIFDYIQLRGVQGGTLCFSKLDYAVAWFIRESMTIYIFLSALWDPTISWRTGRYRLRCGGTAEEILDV
For orientation: EC50 means the concentration at which the effect is half-maximal. A low value points to an effect from little substance. In the case of `O=C(N1CCN2CCC1CC2)n1nc(-c2ccc(F)cc2)c2c1[C@H]1C[C@H]1C2` [Compound 11, (1,4-diazabicyclo[3.2.2]nonan-4-yl)((4aS,5aS)-3-(4-fluorophenyl)-4,4a,5,5a-tetrahydro-1H-cyclopropa[4,5]cyclopenta[1,2-c]pyrazol-1-yl)methanone], the midpoint of the response, the EC50, lay at 0.1 nM.
With `O=C(N1CCN2CCC1CC2)n1nc(-c2ccc(F)cc2)c2c1CCC2` [Compound 12, 1,4-diazabicyclo[3.2.2]nonan-4-yl-[3-(4-fluorophenyl)-5,6-dihydro-4H-cyclopenta[c]pyrazol-1-yl]methanone] the figure was 0.3 nM.
In the case of `O=C(N1CCN2CCC1CC2)n1nc(-c2ccc(F)cc2)c2c1CCOC2` [Compound 13, 1,4-diazabicyclo[3.2.2]nonan-4-yl-[3-(4-fluorophenyl)-6,7-dihydro-4H-pyrano[4,3-c]pyrazol-1-yl]methanone], the EC50 was 4.1 nM.
The figure for `O=C(N1CCN2CCC1CC2)n1nc(-c2ccc(F)cc2)c2c1C1CCC2C1` [Compound 14, (R,R) and (S,S)-(1,4-diazabicyclo[3.2.2]nonan-4-yl)(3-(4-fluorophenyl)-4,5,6,7-tetrahydro-1H-4,7-methanoindazol-1-yl)methanone] is 1.2 nM; for `CC1(C)COc2c(-c3ccc(F)cc3)nn(C(=O)N3CCN4CCC3CC4)c21` [Compound 17, (1,4-diazabicyclo[3.2.2]nonan-4-yl)(3-(4-fluorophenyl)-6,6-dimethyl-5,6-dihydro-1H-furo[3,2-c]pyrazol-1-yl)methanone] it is 10.1 nM.
In turn, `CC1(C)Cc2c(c(-c3ccc(F)cc3)nn2C(=O)N2CCN3CCC2CC3)CO1` [Compound 18, (1,4-diazabicyclo[3.2.2]nonan-4-yl)(3-(4-fluorophenyl)-6,6-dimethyl-6,7-dihydropyrano[4,3-c]pyrazol-1(4H)-yl)methanone] displayed an EC50 of 9.8 nM.
The figure for `O=C(N1CCN2CCC1CC2)n1nc(-c2ccc(F)cc2)c2c1CCC(F)(F)C2` [Compound 19, (1,4-diazabicyclo[3.2.2]nonan-4-yl)(5,5-difluoro-3-(4-fluorophenyl)-4,5,6,7-tetrahydro-1H-indazol-1-yl)methanone] is 8.2 nM; for `O=C(N1CCN2CCC1CC2)n1nc(-c2ccc(F)cc2)c2c1CC(F)(F)C2` [Compound 20, (1,4-diazabicyclo[3.2.2]nonan-4-yl)(5,5-difluoro-3-(4-fluorophenyl)-5,6-dihydrocyclopenta[c]pyrazol-1(4H)-yl)methanone] it is 4.7 nM.
The compound `O=C(N1CCN2CCC1CC2)n1nc(-c2ccc(F)cc2)c2c1CC(O)C2` (stereo not drawn) [Compound 21, R and S-(1,4-diazabicyclo[3.2.2]nonan-4-yl)(3-(4-fluorophenyl)-5-hydroxy-5,6-dihydrocyclopenta[c]pyrazol-1(4H)-yl)methanone] came in with an EC50 of 19.3 nM.
With `Cn1ncc2ccc(-c3nn(C(=O)N4CCN5CCC4CC5)c4c3CCC4)cc21` [Compound 22, 1,4-diazabicyclo[3.2.2]nonan-4-yl-[3-(1-methylindazol-6-yl)-5,6-dihydro-4H-cyclopenta[c]pyrazol-1-yl]methanone] the figure was 6.3 nM.
With `O=C(N1CCN2CCC1CC2)n1nc(-c2ccc(Cl)cn2)c2c1COCC2` [Compound 23, (1,4-diazabicyclo[3.2.2]nonan-4-yl)(3-(5-chloropyridin-2-yl)-4,7-dihydropyrano[3,4-c]pyrazol-1(5H)-yl)methanone] the figure was 3.7 nM; with `CC1(C)CCCN(c2nn(C(=O)N3CCN4CCC3CC4)c3c2CCC3)C1` [Compound 24, (1,4-diazabicyclo[3.2.2]nonan-4-yl)(3-(3,3-dimethylpiperidin-1-yl)-5,6-dihydrocyclopenta[c]pyrazol-1(4H)-yl)methanone], 7.8 nM; with `O=C(N1CCN2CCC1CC2)n1nc(-n2nc(C(F)(F)F)ccc2=O)c2c1CCOC2` [Compound 25, 2-(1-(1,4-diazabicyclo[3.2.2]nonane-4-carbonyl)-1,4,6,7-tetrahydropyrano[4,3-c]pyrazol-3-yl)-6-(trifluoromethyl)pyridazin-3(2H)-one], 27 nM.
The figure for `O=C(N1CCN2CCC1CC2)n1nc(OC2CCCC2)c2c1CCC2` [Compound 26, (1,4-diazabicyclo[3.2.2]nonan-4-yl)(3-(cyclopentyloxy)-5,6-dihydrocyclopenta[c]pyrazol-1(4H)-yl)methanone] is 23.3 nM; for `O=C(N1CCN2CCC1CC2)n1nc(-c2cccc(Cl)c2F)c2c1COCC2` [Compound 27] it is 1.6 nM.
`Cc1ccccc1-c1nn(C(=O)N2CCN3CCC2CC3)c2c1CCOC2` [Compound 28, (1,4-diazabicyclo[3.2.2]nonan-4-yl)(3-(o-tolyl)-4,7-dihydropyrano[3,4-c]pyrazol-1(5H)-yl)methanone] showed an EC50 of 6.6 nM.
On to `O=C(N1CCN2CCC1CC2)n1nc(-c2cc(Cl)ccc2F)c2c1COCC2` [Compound 29, (1,4-diazabicyclo[3.2.2]nonan-4-yl)(3-(5-chloro-2-fluorophenyl)-4,7-dihydropyrano[3,4-c]pyrazol-1(5H)-yl)methanone], for which the EC50 worked out at 3.8 nM.
Compound `O=C(N1CCN2CCC1CC2)n1nc(-c2ccc(C(F)(F)F)cc2)c2c1COCC2` [Compound 30, (1,4-diazabicyclo[3.2.2]nonan-4-yl)(3-(4-(trifluoromethyl)phenyl)-4,7-dihydropyrano[3,4-c]pyrazol-1(5H)-yl)methanone] displayed an EC50 of 2.7 nM.
Compound `Cc1ccc(-c2nn(C(=O)N3CCN4CCC3CC4)c3c2CCC3)cc1` [Compound 31, 1,4-diazabicyclo[3.2.2]nonan-4-yl-[3-(p-tolyl)-5,6-dihydro-4H-cyclopenta[c]pyrazol-1-yl]methanone] yielded an EC50 of 0.2 nM.
With `COc1ncc(-c2nn(C(=O)N3CCN4CCC3CC4)c3c2CCOC3)cc1Cl` [Compound 32, (1,4-diazabicyclo[3.2.2]nonan-4-yl)(3-(5-chloro-6-methoxypyridin-3-yl)-4,7-dihydropyrano[3,4-c]pyrazol-1(5H)-yl)methanone] the figure was 7.6 nM; with `Cn1nc(C(F)(F)F)cc1-c1nn(C(=O)N2CCN3CCC2CC3)c2c1CCC2` [Compound 33, 1,4-diazabicyclo[3.2.2]nonan-4-yl-[3-[2-methyl-5-(trifluoromethyl)pyrazol-3-yl]-5,6-dihydro-4H-cyclopenta[c]pyrazol-1-yl]methanone], 5.9 nM; with `COc1nccc(-c2nn(C(=O)N3CCN4CCC3CC4)c3c2CCOC3)c1Cl` [Compound 34, (1,4-diazabicyclo[3.2.2]nonan-4-yl)(3-(3-chloro-2-methoxypyridin-4-yl)-4,7-dihydropyrano[3,4-c]pyrazol-1(5H)-yl)methanone], 15.3 nM.
The compound `O=C(N1CCN2CCC1CC2)n1nc(C2=CCC(F)(F)CC2)c2c1COCC2` [Compound 35, (1,4-diazabicyclo[3.2.2]nonan-4-yl)(3-(4,4-difluorocyclohex-1-en-1-yl)-4,7-dihydropyrano[3,4-c]pyrazol-1(5H)-yl)methanone] yielded an EC50 of 38.5 nM.
Consider `O=C(N1CCN2CCC1CC2)n1nc(-c2ccc(F)c(Cl)c2)c2c1CCOC2` [Compound 36, (1,4-diazabicyclo[3.2.2]nonan-4-yl)(3-(3-chloro-4-fluorophenyl)-6,7-dihydropyrano[4,3-c]pyrazol-1(4H)-yl)methanone], for which the EC50 turned out to be 0.3 nM.
As to `O=C(N1CCN2CCC1CC2)n1nc(C2=CCCC2)c2c1CCC2` [Compound 37, [3-(cyclopenten-1-yl)-5,6-dihydro-4H-cyclopenta[c]pyrazol-1-yl]-(1,4-diazabicyclo[3.2.2]nonan-4-yl)methanone], the EC50 is 3.6 nM.
`COc1c(F)cccc1-c1nn(C(=O)N2CCN3CCC2CC3)c2c1CCC2` [Compound 38, 1,4-diazabicyclo[3.2.2]nonan-4-yl-[3-(3-fluoro-2-methoxy-phenyl)-5,6-dihydro-4H-cyclopenta[c]pyrazol-1-yl]methanone] had an EC50 of 0.6 nM.
On to `Cc1cccc(-c2nn(C(=O)N3CCN4CCC3CC4)c3c2COCC3)c1F` [Compound 39, (1,4-diazabicyclo[3.2.2]nonan-4-yl)(3-(2-fluoro-3-methylphenyl)-6,7-dihydropyrano[4,3-c]pyrazol-1(4H)-yl)methanone], for which the EC50 stood at 0.3 nM.

For the origin of these results see patent US20250026762A1, “FUSED PYRAZOLE UREA ANALOGS AS GLUCOSYLCERAMIDE SYNTHASE INHIBITORS” (Merck Sharp & Dohme LLC, priority 2021, published 2025).
